Reference: US20190008850A1, “METHOD OF TREATING SCHIZOPHRENIA” (priority 2015, published 2019)
Structures can show the parent of a compound that is named as a salt.

System: individuals with schizophrenia
Assay: Therapeutic administration of dextromethorphan in schizophrenia (summary statement)
Assay type: in vivo, human

For COc1ccc2c(c1)[C@]13CCCC[C@@H]1[C@H](C2)N(C)CC3 [dextromethorphan, morphinan, 3-methoxy-17-methyl-, (9a, 13a, 14a)-hydrobromide monohydrate], the progression of schizophrenia (administered at first break) was “mitigated the progression of schizophrenia, and in some cases, reversed the disorder”, the “positive symptoms, in particular expressions of hostility” value (in vivo) was “appears to also reduce some positive symptoms” and the “frequency and intensity of negative symptoms” value (individuals with established schizophrenia diagnoses) was “significantly reduced”. For the same molecule, the “negative symptoms of schizophrenia” value (therapeutic administration) was “substantially reduces”.
